Data as given in PubChem BioAssay AID1919008 (Molecular Pharmacology Branch, DTP, NCI, 2023).
“And” between values parts separate entries of the source, which are not always exact repeats. Equal values may be shown once.

System: DMS-114 complex spheroids with HUVEC/MSC, growth % test/control
Test: Anticancer human tumor DMS-114 cell line growth inhibition [AhR];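 further: spheroids exposed to agents for 7 days before readout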;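 on viability, T/C: 100% = DMSO vehicle control wells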
Conditions: for viability, T/C: stronger effect = lower value
From the text: Multicellular complex tumor spheroid response to aryl hydrocarbon receptor antagonists in combination with a variety of drugs and investigational agents in selected tumor cell lines
The current study was undertaken to assess response to aryl hydrocarbon receptor antagonists in combination with standard-of-care drugs and investigational agents in solid tumor complex spheroid models. Complex spheroids include a stromal component modeled by human endothelial cells (HUVEC) and fibroblasts modeled by human mesenchymal stem cells (MSCs). The concentration ranges selected for each drug and investigational agent were based upon clinically achievable concentrations if the clinical Cmax of the agent was known.
Compounds. The drugs and investigational agents: BAY 2416964 (NSC825713), GNF351 (NSC835774), CH-223191 (NSC835775), CPI-455 (NSC825282), aza-TdCyd (NSC777586), decitabine (NSC127716), belinostat (NSC758774), entinostat (NSC756642), pevonedistat (NSC761192), tazemetostat (NSC777109), talazoparib (NSC765396), olaparib (NSC753686), selinexor (NSC780203), nedisertib (M3814, NSC802822), bortezomib (NSC756655), venetoclax (NSC766270), doxorubicin (NSC123127), elimusertib (BAY189344, NSC800525), ceralasertib (AZD6738, NSC777638), TAK-243 (NSC785004), alisertib (NSC759677), etoposide (NSC141540), topotecan (NSC609699), eribulin (NSC707389), gemcitabine (NSC613327), carboplatin (NSC241240), cisplatin (NSC119875), and SN-38 (NSC673596) were obtained from the National Cancer Institute (NCI) Developmental Therapeutics Program Chemical Repository (32). The FDA-approved anticancer drug set is available from the Developmental Therapeutics Program at https://dtp.cancer.gov/organization/dscb/obtaining/available plates.htm. […] The stock solutions were prepared in dimethyl sulfoxide (DMSO, Sigma-Aldrich, St. Louis, MO, cat. D2650), except for the platinum compounds which were prepared in saline (Quality Biological, Gaithersburg, MD, cat. 114-055-101), at 800-fold the tested concentration and stored at -70 degrees C prior to their use. All drugs and investigational agents were tested over a range starting from a high concentration at or near the clinical Cmax and decreasing in half-log increments. If the clinical Cmax for an agent had not been determined, the highest concentration tested was 10 microM (Table 1).
Cell Culture. All cells were maintained in an incubator at 37 degrees C and 5% CO2 with 95% humidity. The PDC lines were cultured according to standard operating procedures established by the NCI PDMR (https://pdmr.cancer.gov). Briefly, all PDCs were thawed and cultured in Matrigel-coated flasks prepared with a working solution of 1X Ham's F-12 nutrient mix, without supplementation (Invitrogen, Waltham, MA, cat. 11765054), 100 U/mL penicillin-streptomycin (Invitrogen, cat. 15140122), and 2.5% Matrigel (Corning Inc., Corning, NY, cat. 354248) for the first three passages. All PDCs were cultured in complete DMEM/F-12 media containing advanced DMEM/F-12 (Invitrogen, cat. 12634028), 4.9% defined fetal bovine serum, heat inactivated (HyClone Laboratories Inc., Logan, UT, cat. SH30070.03HI), 389 ng/mL hydrocortisone (Sigma-Aldrich, cat. H4001), 9.7 ng/mL human EGF recombinant protein (Invitrogen, cat. PHG0313), 23.4 microg/mL adenine (Sigma-Aldrich, cat. A2786), 97.3 U/mL penicillin-streptomycin (Invitrogen, cat. 15140122), 1.9 mM L-glutamine (Invitrogen, cat. 25030081), and 9.7 microM Y-27632 dihydrochloride (Tocris Bioscience, Bristol, United Kingdom, cat. 1254). The PDCs were cultured in complete DMEM/F12 media without 10 microM Y-27632 dihydrochloride for at least two passages prior to the screen. The established cell lines NCI-H1341 and […] were cultured in DMEM/F-12, HEPES (Invitrogen, cat. 11330032), 5% defined fetal bovine serum (HyClone Laboratories Inc., cat. SH30070.03), ITS premix universal culture supplement [insulin (5 microg/mL), transferrin (5 microg/mL), and selenious acid (5 ng/mL)] […]

Compound	IC50 (curve of compound)	viability, T/C (compound 0.0316 µM)	viability, T/C (compound 0.1 µM)	viability, T/C (compound 0.316 µM)	viability, T/C (compound 1 µM)	viability, T/C (compound 3.16 µM)	viability, T/C (compound 10 µM)	other results
CC(C)CC(NC(=O)C(Cc1ccccc1)NC(=O)c1cnccn1)B(O)O (stereo not drawn)	5.51 nM and 5.76 nM and 4 nM	–	–	–	–	–	–	viability, T/C (compound 0.000949 µM): 98.7% and 95% and 101%; viability, T/C (compound 0.003 µM): 109% and 105% and 66.2%; viability, T/C (compound 0.00949 µM): 1.7% and 11.6% and 1.54%; viability, T/C (compound 0.03 µM): 0.16% and 0.44% and 0.39%; viability, T/C (compound 0.0949 µM): 0.13% and 0.38% and 0.33%; viability, T/C (compound 0.3 µM): 0.21% and 0.32% and 0.4%
CC(C)c1c(-c2ccccc2)nc2c(C#N)c[nH]n2c1=O	> 10000 nM	104% and 106% and 108%	117% and 104% and 101%	108% and 99.2% and 105%	105% (2×) and 96.3%	116% and 99.7% and 105%	111% and 102% (2×)	–
CC(CO)NC(=O)c1cc(-c2ccc(Cl)cc2)nn(-c2cnn(C)c2)c1=O (stereo not drawn)	–	–	98.2% [middle of 20 runs]	–	95.8% [middle of 21 runs]	–	–	IC50 (compound alone, run of 07/12/2022): > 10000 nM
CC1(C)CCC(CN2CCN(c3ccc(C(=O)NS(=O)(=O)c4ccc(NCC5CCOCC5)c([N+](=O)[O-])c4)c(Oc4cnc5[nH]ccc5c4)c3)CC2)=C(c2ccc(Cl)cc2)C1	> 10000 nM	101% and 99.7% and 98.9%	102% and 97.2% and 99%	92.6% and 103% and 110%	98.6% and 108% and 117%	113% and 107% and 116%	107% and 105% and 61.2%	–
CC1COCCN1c1cc(-c2ccnn2C)c2ccnc(-c3ccn[nH]3)c2n1 (stereo not drawn)	–	50.2% and 101% and 62.9%	32.1% and 81.2% and 45%	21.2% and 65.8% and 31.5%	10.6% and 33.4% and 15.8%	–	–	viability, T/C (compound 0.00316 µM): 89.5% and 94.4% and 96.2%; viability, T/C (compound 0.01 µM): 76.2% and 102% and 80.5%
CC1COCCN1c1cc(C2(S(C)(=N)=O)CC2)nc(-c2ccnc3[nH]ccc23)n1 (stereo not drawn)	5130 nM and > 10000 nM and 5460 nM	99.2% and 97.3% and 90.2%	114% and 106% and 101%	99.1% and 96.2% and 87.3%	98.6% and 98.9% and 78.1%	66.1% and 101% and 65.9%	27.7% and 76.4% and 33.8%	–
CCN(c1cc(-c2ccc(CN3CCOCC3)cc2)cc(C(=O)NCc2c(C)cc(C)[nH]c2=O)c1C)C1CCOCC1	> 3000 nM	–	–	–	–	–	–	viability, T/C (compound 0.00949 µM): 99.5% and 108% and 105%; viability, T/C (compound 0.03 µM): 110% and 95.2% and 118%; viability, T/C (compound 0.0949 µM): 112% and 105% and 109%; viability, T/C (compound 0.3 µM): 101% and 100% and 115%; viability, T/C (compound 0.949 µM): 73.7% and 104% and 92.1%; viability, T/C (compound 3 µM): 68.2% and 106% and 76.9%
CC[C@@]1(O)C(=O)OCc2c1cc1n(c2=O)Cc2cc3c(CN(C)C)c(O)ccc3nc2-1	23.4 nM and 27.8 nM and 64.4 nM	39.3% and 44.6% and 60.9%	19% and 22.2% and 43.2%	–	–	–	–	viability, T/C (compound 0.000316 µM): 101% (2×) and 99%; viability, T/C (compound 0.001 µM): 96.5% and 104% and 98.2%; viability, T/C (compound 0.00316 µM): 93.2% and 85.7% and 107%; viability, T/C (compound 0.01 µM): 79.9% and 87.8% and 95.2%
CCc1c2c(nc3ccc(O)cc13)-c1cc3c(c(=O)n1C2)COC(=O)[C@]3(O)CC	2.01 nM and 9.5 nM and 1.79 nM	–	–	–	–	–	–	viability, T/C (compound 0.000949 µM): 67.7% and 96.1% and 59.2%; viability, T/C (compound 0.003 µM): 40.4% and 91.2% and 42.6%; viability, T/C (compound 0.00949 µM): 20% and 50% and 21.4%; viability, T/C (compound 0.03 µM): 13.4% and 36.5% and 21.1%; viability, T/C (compound 0.0949 µM): 14.4% and 37.9% and 15.2%; viability, T/C (compound 0.3 µM): 14.4% and 35.1% and 16.7%
COc1cc(C2c3cc4c(cc3C(OC3OC5COC(C)OC5C(O)C3O)C3COC(=O)C23)OCO4)cc(OC)c1O (stereo not drawn)	402 nM and 682 nM and 1810 nM	96.4% and 99.5% and 94.3%	85.2% and 85.9% and 99%	57.3% and 77% and 89.2%	23.7% and 34.1% and 60.9%	16.9% and 30.2% and 40.8%	9.04% and 15.1% and 30.3%	–
COc1cc(Nc2ncc3c(n2)-c2ccc(Cl)cc2C(c2c(F)cccc2OC)=NC3)ccc1C(=O)O	–	24.8% and 65.8% and 25.6%	24.5% and 56.9% and 27.2%	40% and 108% and 56%	65.1% and 114% and 79%	64% and 116% and 85.6%	74.5% and 104% and 61.2%	–
COc1ccc([C@@H](O)c2cc(-c3ncnc4cc(N5CCOCC5)ccc34)c(F)cc2Cl)nn1	> 10000 nM	104% and 102% and 101%	107% and 101% and 103%	96.9% and 107% and 112%	97.4% and 114% and 94.8%	102% and 110% and 95.2%	56% and 96.2% and 56.6%	–
